Drawing on PubChem BioAssay (NCI), this text covers TGI and GI50 for 19 compounds.

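Tested at 5 concentrations; 48 h exposure; 96-well plates; endpoints linearly interpolated, else capped at highest concentration. GI50 = concentration required for 50% inhibition of growth. Definition used: TGI = concentration required for complete inhibition of growth.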 A value given as a limit tells only on which side of the number the result lay.

Common to all, as to assay: NCI anticancer screen, dose series, 48 h
Assay [1] deals with OVCAR-3 ovarian.
For assay [2], the system named is CAKI-1 renal.
The test system of assay [3] is SNB-75 CNS.
Assay [4] concerns MDA-MB-435.
For assay [5], the system named is HOP-62 NSCLC.
In assay [6] the test system is SF-295 CNS.
Assay [7] deals with UACC-62 melanoma.
Assay [8] deals with PC-3 prostate.
The subject of assay [9] is K-562 leukemia.
The subject of assay [10] is ACHN renal.

As for `O=C1c2ccccc2-c2c1c1ccccc1c(=O)n2Cc1ccccc1`, the TGI in [1], in assay [2], in assay [3], in assay [4], in [5] and in assay [6] was above 100 µM each time. In addition, the TGI in assay [7] and in [8] was above 100 µM each time.

As to `Cc1ccc(C(=NN=C(N)N)c2ccc(C)cc2)cc1`, the GI50 in assay [9] is 0.271 µM; in [1], 0.24 µM; in assay [2] it was 0.608 µM; in assay [10] it was 1.1 µM; in assay [3] it was 0.845 µM; in [4] it was 0.199 µM. The GI50 in assay [5] was 1.21 µM; in assay [6], 0.284 µM; in assay [7], 0.902 µM; in assay [8], 0.457 µM. For the same compound, the TGI is 1.55 µM in [9]; 0.568 µM in assay [1]; 5.93 µM in [2]; 7.4 µM in assay [10]; 16.7 µM in assay [3]; 0.471 µM in [4]. In addition, the TGI was 12.5 µM in assay [5], 0.945 µM in assay [6], 6.04 µM in [7] and 10.5 µM in assay [8].

On to `CCN(CC)CCCC(C)Nc1c(C)cnc2cc(Cl)c(C)cc12` (stereo not given), for which the GI50 was 1.26 µM in assay [9]; 10.1 µM in [1]; 10 µM in [2]; 5.49 µM in [10]; 17.8 µM in [3]; 7.8 µM in [4]. The GI50 in [5] was 18.2 µM; in [6] it was 11.3 µM; in [7] it was 3.44 µM; in [8], 9.69 µM. In addition, the TGI came out at 8.36 µM in [9]; 27.4 µM in [1]; 26.6 µM in assay [2]; 31.5 µM in assay [10]; 36 µM in assay [3]; 20.1 µM in assay [4]. Moreover, the TGI turned out to be 32.9 µM in [5], 28.1 µM in assay [6], 11.1 µM in [7] and 26.4 µM in assay [8].

Take `Cc1cc(SCC(=O)c2ccccc2)nc2ccccc12`: the TGI in assay [9], in [1], in [2], in assay [10], in assay [3] and in [4] was above 100 µM each time. The TGI in assay [5], in assay [6], in assay [7] and in assay [8] was above 100 µM each time.

Take `COC(=O)C(=O)C(C(=O)C(=O)Nc1ccccc1C(N)=O)c1nc2ccc(Cl)cc2[nH]c1=O` (stereo not given): the TGI in assay [9], in [1], in assay [2], in [10], in assay [3] and in [4] was above 100 µM in each case. For the same compound, the TGI in [6], in [7] and in assay [8] was above 100 µM in each case.

On to `NC(N)=NCCCn1c2c(c3ccccc3c1=O)C(=O)c1ccccc1-2`, for which the GI50 in assay [9] is 11.6 µM; in [1] it was 18.3 µM; in assay [2] it was 20.3 µM; in assay [10], 18 µM; in [3], 5.69 µM; in assay [4] it was 25.9 µM. Moreover, the GI50 is 0.695 µM in assay [5], 1.66 µM in assay [6], 10.9 µM in [7] and 52.1 µM in assay [8]. The TGI in assay [9] came out at 29.5 µM; in assay [1], 45.4 µM; in assay [2], 49 µM; in [10], 35.2 µM; in assay [3], 26.4 µM; in assay [4], 71.5 µM. The TGI was 3.64 µM in assay [5], 7.72 µM in [6], 25.7 µM in assay [7] and above 100 µM in assay [8].

Regarding `NC(=S)N/N=C/c1ccc(OC(=O)COc2ccc(Cl)cc2)cn1`, the GI50 was 1.36 µM in [9]; 4.3 µM in assay [2]; 3.39 µM in [10]; 5.89 µM in [4]; 14.6 µM in [5]; 20.8 µM in assay [6]. Further, the values for the GI50 in [7] and in assay [8] were 4.17 µM and 4.67 µM, respectively. Moreover, the TGI is above 100 µM in assay [9]; 97.4 µM in assay [2]; above 100 µM in assay [10]; above 100 µM in [3]; above 100 µM in assay [4]; 91.1 µM in [5]. Besides, the figures for the TGI in [6], in [7] and in assay [8] were above 100 µM, 60 µM and above 100 µM, respectively.

Consider `COc1ccc(C(=O)c2cc(C)c(OC)c(C)c2)c(OC)c1N(C(=O)C(Cl)Cl)C(=O)C(Cl)Cl`, for which the GI50 in assay [9] is 0.0487 µM; in [1], 0.0357 µM; in [2], 0.0415 µM; in [10], 0.0699 µM; in [3] it was 0.0283 µM; in assay [4], 0.021 µM. Also, the GI50 in assay [5] was 0.0666 µM; in [6] it was 0.0323 µM; in assay [7], 0.0605 µM; in [8], 0.0436 µM. Besides, the TGI was above 100 µM in assay [9]; above 100 µM in [2]; above 100 µM in assay [10]; above 100 µM in assay [3]; 0.0625 µM in [4]; above 100 µM in [5]. Moreover, the TGI in [6], in [7] and in assay [8] was above 100 µM each time.

For `CCN(CC)CCN1CC(O)=C(c2nc(-c3ccc(Cl)cc3)cs2)C1=N`, the GI50 in [9] was 1.42 µM; in [1], 4.06 µM; in [2], 1.98 µM; in assay [10], 3.14 µM; in [3], 1.6 µM; in assay [4] it was 1.72 µM. In addition, the GI50 was 1.83 µM in [5], 1.8 µM in assay [6], 1.87 µM in assay [7] and 6.8 µM in [8]. Besides, the TGI was 3.04 µM in [9]; 20.4 µM in [1]; 6.72 µM in assay [2]; 12 µM in assay [10]; 3.4 µM in assay [3]; 3.25 µM in assay [4]. For the same compound, the TGI in assay [5] is 3.99 µM; in assay [6] it was 3.49 µM; in [7] it was 3.53 µM; in [8], above 100 µM.

For the compound `C[N+](C)(C)CC1CCCC(C[N+](C)(C)C)C1=O` (stereo not given), the TGI in [9] was 2.58 µM; in [1], 1.36 µM; in [2], 1.48 µM; in assay [10] it was 1.82 µM; in assay [3], 14.5 µM; in [4], 3.43 µM. The TGI in [5] stood at 43.3 µM; in [6], 45.6 µM; in assay [7], 10.9 µM; in [8], 10.3 µM.

For `COC(=O)Nc1nc2ccc(Oc3ccc(NC(=O)Nc4ccccc4)cc3)cc2[nH]1`, the GI50 in [9] was 0.105 µM; in assay [1], 0.0713 µM; in assay [2], 3.4 µM; in assay [10], 0.466 µM; in assay [3] it was 0.115 µM; in [4], 0.0474 µM. Further, the GI50 was 0.109 µM in [5], 0.121 µM in assay [6], 0.0933 µM in [7] and 0.15 µM in [8]. Moreover, the TGI in assay [9] was above 9.63 µM; in [1], 0.205 µM; in assay [2], above 21.7 µM; in assay [10], above 25 µM; in assay [3], 7.15 µM; in assay [4] it was 0.12 µM. The TGI was 2.52 µM in assay [5], 2.23 µM in assay [6], 4.5 µM in assay [7] and above 9.6 µM in assay [8].

In the case of `NC(CC(=O)OCc1ccccc1)C(=O)OCc1ccccc1` (stereo not given), the TGI in assay [1], in assay [2], in assay [10], in assay [4], in [5] and in [6] was above 100 µM each time. For the same compound, the TGI in [7] and in assay [8] was above 100 µM in each case.

As to `COc1ccc2c(c1)C=C([N+](=O)[O-])C(C1OC(C)(C)OC1C1COC(C)(C)O1)O2` (stereo not given), the TGI in [9] was determined as 4.88 µM; in assay [1] it was 21.8 µM; in assay [2] it was 13.9 µM; in [10], 6.53 µM; in assay [3], 28.2 µM; in assay [4], 14.8 µM. The TGI in assay [5] stood at 37.4 µM; in [6], 22.2 µM; in assay [7], 3.72 µM.

On to `O=C(CCl)Nc1ccc(Cl)cc1`, for which the GI50 is 1.88 µM in assay [1]; 1.59 µM in [2]; 3.13 µM in assay [10]; 7.43 µM in [3]; 4.4 µM in assay [4]; 2.01 µM in [5]. Also, the values for the GI50 in [6], in assay [7] and in [8] were 3.45 µM, 3.6 µM and 7.36 µM, respectively. In addition, the TGI in [1] was determined as 3.62 µM; in assay [2] it was 3.31 µM; in assay [10] it was 10.6 µM; in assay [3], 21.1 µM; in [4], 20.4 µM; in [5], 3.91 µM. The TGI in [6] is 13.3 µM; in [7], 17 µM; in [8], 23.7 µM.

Consider `CCOC(=O)c1cc(/C(=N\O)c2cc(OC)c(OC)c(OC)c2)n2cc(C)cc(C)c12`, for which the GI50 in assay [1] was 1.74 µM; in assay [2], 2.36 µM; in assay [10], 3 µM; in [3], 1.48 µM; in assay [4] it was 0.565 µM; in [5], 1.73 µM. The GI50 in assay [6] is 1.72 µM; in assay [8], 3.33 µM. For the same compound, the TGI in assay [1] is 4.33 µM; in [2], above 100 µM; in assay [10], above 100 µM; in [3], 4.48 µM; in [4] it was 4.16 µM; in assay [5] it was 5.45 µM. In addition, the TGI is 5.25 µM in [6] and above 100 µM in assay [8].

Regarding `Cc1ccc(/C(=C/C=C(C#N)C#N)Sc2ccc(Cl)cc2)cc1`, the GI50 in [9] was 3.34 µM; in [1] it was 2.31 µM; in assay [2], 2.03 µM; in assay [10], 4.62 µM; in assay [4], 3.02 µM; in [5] it was 6.4 µM. The results for the GI50 in assay [6], in assay [7] and in [8] were 4.07 µM, 5.3 µM and 3.65 µM, respectively. Further, the TGI worked out at 18.4 µM in assay [9]; 9.34 µM in assay [1]; 5.3 µM in assay [2]; 36.9 µM in assay [10]; 10.7 µM in assay [4]; 15.6 µM in assay [5]. For the same compound, the TGI in assay [6] came out at 16.8 µM; in [7], 23.1 µM; in assay [8], 14.7 µM.

Regarding `CN(C)c1ccc(N)cc1`, the GI50 in assay [1] is 2.14 µM; in assay [2], 5.6 µM; in assay [10], 4.38 µM; in assay [3] it was 3.79 µM; in assay [4] it was 3.4 µM; in assay [6], 2.37 µM. For the same compound, the figures for the GI50 in [7] and in assay [8] were 4 µM and 3.53 µM, respectively. The TGI turned out to be 6.12 µM in assay [1]; 30.9 µM in assay [2]; 18 µM in assay [10]; 17.3 µM in [3]; 15.2 µM in assay [4]; 6.48 µM in [6]. Besides, the TGI stood at 16.8 µM in assay [7] and 21.8 µM in assay [8].

Take `Fc1cc(F)c(COc2cc(Cn3cnc4c(Cl)nc(Cl)nc43)ccc2C23CC4CC(CC(C4)C2)C3)cc1F`: the GI50 in assay [1] is 15.6 µM; in assay [2] it was 10.4 µM; in assay [10] it was 17.1 µM; in [3], 21.7 µM; in assay [4] it was 17.3 µM; in assay [5], 17.4 µM. Besides, the GI50 was 18 µM in assay [6], 12.5 µM in [7] and 19.3 µM in assay [8]. The TGI came to 30.2 µM in assay [1]; 22.8 µM in assay [2]; 30.8 µM in assay [10]; 52.1 µM in assay [3]; 33 µM in assay [4]; 31.2 µM in assay [5]. The TGI was found to be 34 µM in [6], 25.2 µM in assay [7] and 33.8 µM in [8].

Turning to `O=C1NC(=O)c2ccc([N+](=O)[O-])c3cccc1c23`, the TGI was 32.7 µM in assay [9]; 39 µM in assay [2]; 33.7 µM in [10]; 85.9 µM in assay [3]; 29.9 µM in assay [4]; 49.2 µM in assay [5]. The TGI in assay [6] came to 32.8 µM; in [7] it was 27 µM; in assay [8] it was 32 µM.
